Test results reported in ChEMBL document CHEMBL4339248, “Secondary Metabolites Produced by Combined Culture of Penicillium crustosum and a Xylaria sp” (J Nat Prod, 2019).
≈ marks a conversion by molar mass, not a printed value. Calls of active or inactive are those of the source. The calls are words filed in the database; no cut-off is given here.

Columns and labels:
Vibrio parahaemolyticus = experiment: Antimicrobial activity against Vibrio parahaemolyticus by BSAC standardized disc susceptibility testing method; format: functional
Mycolicibacterium phlei = experiment: Antimicrobial activity against Mycobacterium phlei by BSAC standardized disc susceptibility testing method; format: functional
Bacillus subtilis = experiment: Antimicrobial activity against Bacillus subtilis by BSAC standardized disc susceptibility testing method; format: functional
L02 = experiment: Cytotoxicity in human L02 cells assessed as reduction in cel viability incubated for 24 or 72 hrs by SRB or MTT assay; format: cell-based
HCT-116 = experiment: Cytotoxicity in human HCT116 cells assessed as reduction in cel viability incubated for 24 or 72 hrs by SRB or MTT assay; format: functional, cell-based
Penicillium crustosum = experiment: Antimicrobial activity against Penicillium crustosum PRB-2 assessed as inhibition of microbial growth at 25 ug/disk by disk diffusion test; format: functional, organism-based
MGC-803 = experiment: Cytotoxicity in human MGC803 cells assessed as reduction in cel viability incubated for 24 or 72 hrs by SRB or MTT assay; format: functional, cell-based
K562 = experiment: Cytotoxicity in human K562 cells assessed as reduction in cel viability incubated for 24 or 72 hrs by SRB or MTT assay; format: functional, cell-based
Bel-7402 = experiment: Cytotoxicity in human Bel7402 cells assessed as reduction in cel viability incubated for 24 or 72 hrs by SRB or MTT assay; format: functional, cell-based
SH-SY5Y = experiment: Cytotoxicity in human SH-SY5Y cells assessed as reduction in cel viability incubated for 24 or 72 hrs by SRB or MTT assay; format: functional, cell-based
A549 = experiment: Cytotoxicity in human A549 cells assessed as reduction in cel viability incubated for 24 or 72 hrs by SRB or MTT assay; format: functional, cell-based
MDA-MB-231 = experiment: Cytotoxicity in human MDA-MB-231 cells assessed as reduction in cel viability incubated for 24 or 72 hrs by SRB or MTT assay; format: functional, cell-based
HeLa = experiment: Cytotoxicity in human HeLa cells assessed as reduction in cel viability incubated for 24 or 72 hrs by SRB or MTT assay; format: functional, cell-based
[1] = Cytotoxicity in human HO8910 cells assessed as reduction in cel viability incubated for 24 or 72 hrs by SRB or MTT assay; format: functional, cell-based; conditions: HO-8910
HL-60 = experiment: Cytotoxicity in human HL60 cells assessed as reduction in cel viability incubated for 24 or 72 hrs by SRB or MTT assay; format: functional, cell-based
PC-3 = experiment: Cytotoxicity in human PC3 cells assessed as reduction in cel viability incubated for 24 or 72 hrs by SRB or MTT assay; format: functional, cell-based
Xylaria sp. = experiment: Antimicrobial activity against Xylaria sp. HDN13-249 assessed as inhibition of microbial growth at 25 ug/disk by disk diffusion test; format: functional

Molecule `O=C(O)c1cn(C2CC2)c2cc(N3CCNCC3)c(F)cc2c1=O` [CIPROFLOXACIN] has an MIC (Vibrio parahaemolyticus) of 12.5 µM (≈ 4.14 µg/mL), an MIC (Mycolicibacterium phlei) of 1.56 µM (≈ 0.517 µg/mL) and an MIC (Bacillus subtilis) of 1.56 µM (≈ 0.517 µg/mL).
In the case of `CCCCC[C@@H](CCCCCCCCCCCc1cc(O)cc(O)c1C(=O)O)OS(=O)(=O)O`, the IC50 (L02) is reported as greater than 30 µM, the IC50 (HCT-116) is reported as greater than 30 µM and the “growth inhibition (GI)” value (Penicillium crustosum) is reported as “inactive”. For the same molecule, the IC50 (MGC-803) was greater than 30 µM, the IC50 (K562) was greater than 30 µM and the IC50 (Bel-7402) was greater than 30 µM. It also gave an IC50 (SH-SY5Y) greater than 30 µM, an IC50 (A549) greater than 30 µM and an IC50 (MDA-MB-231) greater than 30 µM. It also gave an IC50 (HeLa) greater than 30 µM, an IC50 [1] greater than 30 µM and an IC50 (HL-60) greater than 30 µM. The IC50 (PC-3) was greater than 30 µM and the “growth inhibition (GI)” value (Xylaria sp.) was “inactive”.
In the case of `CCCCC[C@H](O)CCCCCCCCCCCc1cc(O)cc(O)c1`, the IC50 (L02) is reported as greater than 30 µM, the IC50 (HCT-116) is reported as greater than 30 µM and the “growth inhibition (GI)” value (Penicillium crustosum) is reported as “inactive”. The MIC (Vibrio parahaemolyticus) was greater than 200 µM, the IC50 (MGC-803) was greater than 30 µM and the MIC (Mycolicibacterium phlei) was 25 µM (≈ 9.11 µg/mL). For the same molecule, the IC50 (K562) was greater than 30 µM, the IC50 (Bel-7402) was greater than 30 µM and the MIC (Bacillus subtilis) was greater than 200 µM. It also gave an IC50 (SH-SY5Y) greater than 30 µM, an IC50 (A549) greater than 30 µM and an IC50 (MDA-MB-231) greater than 30 µM. For the same molecule, the IC50 (HeLa) was greater than 30 µM, the IC50 [1] was greater than 30 µM and the IC50 (HL-60) was greater than 30 µM. The IC50 (PC-3) was greater than 30 µM and the “growth inhibition (GI)” value (Xylaria sp.) was “inactive”.
With `CCCCC[C@H](O)CCCCCCCCCCCc1cc(O)cc(O)c1C(=O)O` the IC50 (L02) was greater than 30 µM, the IC50 (HCT-116) was greater than 30 µM and the “growth inhibition (GI)” value (Penicillium crustosum) was “inactive”. It also gave an MIC (Vibrio parahaemolyticus) of 12.5 µM (≈ 5.11 µg/mL), an IC50 (MGC-803) greater than 30 µM and an MIC (Mycolicibacterium phlei) of 6.25 µM (≈ 2.55 µg/mL). It also gave an IC50 (K562) greater than 30 µM, an IC50 (Bel-7402) greater than 30 µM and an MIC (Bacillus subtilis) greater than 200 µM. It also gave an IC50 (SH-SY5Y) greater than 30 µM, an IC50 (A549) greater than 30 µM and an IC50 (MDA-MB-231) greater than 30 µM. The IC50 (HeLa) was greater than 30 µM, the IC50 [1] was greater than 30 µM and the IC50 (HL-60) was greater than 30 µM. For the same molecule, the IC50 (PC-3) was greater than 30 µM and the “growth inhibition (GI)” value (Xylaria sp.) was “inactive”.
